Source: US20240408054A1, “COMPOSITIONS AND METHODS FOR […] OF R(-)-MDA” (priority 2023, published 2024)
Read-outs that look alike come from different tables or passages of the source.

What was measured:
[1] = other studies in healthy human subjects; cited from earlier work
[2] = prior studies (Hysek 2012, 2014; Thompson 2007); cited from earlier work
[3] = racemic MDMA at 125 mg (FIG. 9); cited from earlier work
[4] = Phase 1 clinical study: pharmacokinetics (plasma); assay type: in vivo, human
[5] = Spoken Intensity Rating Scale (SIRS); assay type: in vivo, human
[6] = Visual Analog Scale (VAS) subjective experience; assay type: in vivo, human
Text: Visual Analogue Scales (VAS) was used to measure subjective experience, including experiences such as Happy, Open, Loving, Close to Others, Sociable, and Lonely. […] Some signal increases were observable for acute increases in the VAS scores of Happy, Open, and Loving experiences, and an acute decrease associated with Lonely (FIG. 2). However, the degree of those signals was far less than previously reported signals for racemic MDMA. These effects for R(−)-MDMA were observable within the acute treatment phase and were dimished (relative to baseline) after 18 hours post-dosing. […] However, R(−)-MDMA did show a consistent pattern in the 225 mg cohort, with highest changes relative to baseline and with similar directionality as the effects reported for racemic MDMA.

[7] = set-up: species or system human; conditions: in vivo
[8] = Multifaceted Empathy Test (MET); assay type: in vivo, human
Text: The Multifaceted Empathy Test (MET) measures cognitive empathy (CE), explicit emotional empathy (EEE) and implicit emotional empathy (IEE). Hurlemann R, et al., (2010) Oxytocin enhances amygdala-dependent, socially reinforced learning and emotional empathy in humans. J Neurosci 30:4999-5007.

[9] = Neuroendocrine effects (hormone concentrations); assay type: in vivo, human
[10] = 5-Dimensions-Altered States of Consciousness (5D-ASC); assay type: in vivo, human
Text: This is generally unexpected given the prior results that have been reported for MDMA. One notable finding from the assessment is the ratio of Oceanic Boundlessness (OB) to Dread of Ego Dissolution (DED), which are considered a useful metric. OB is positively correlated with psychedelic-mediated antidepressant efficacy while DED is negatively correlated. […] The OB-DED ratio is consistent with the 11-Dimensional Altered States of Consciousness (11D-ASC, see below).

[11] = 11-Dimensions-Altered States of Consciousness (11D-ASC); assay type: in vivo, human
Text: The results of the 11D-ASC assessment further confirms the unexpected psychedelic-like response associated with R(−)-MDMA.

[12] = Emotional Breakthrough Inventory (EBI); assay type: in vivo, human; conditions: 75-225 mg
Text: Self-reported breakthrough responses included: facing emotionally difficult feelings that are usually pushed aside; experiencing resolution of a personal conflict or trauma; ability to explore challenging emotions and memories; having an emotional breakthrough; achieving a sense of closure on an emotional problem; achieving emotional release followed by sense of relief.

[13] = Self-Connectedness Scale / Self-Compassion Scale (SCS); assay type: in vivo, human; conditions: for Self-Connectedness Scale LSMean and 95% CI: change from baseline
Text: The Self-Compassion Scale (SCS) is a 12-item self-report measure that is used by adults to measure their capacity for self-compassion-the ability to hold one's feelings of suffering with a sense of warmth, connection and concern.

[14] = Challenging Experiences Questionnaire (CEQ); assay type: in vivo, human; conditions: 6.5 hours post dosing
Text: Seven Challenging Experiences Questionnaire (CEQ) factors (grief, fear, death, insanity, isolation, physical distress, and paranoia) provide a phenomenological profile of challenging aspects of experiences with R(−)-MDMA.

[15] = Depression Anxiety Stress Scale (DASS); assay type: in vivo, human; conditions: for DASS Anxiety Difference with Placebo and 95% CI / DASS Depression Difference with Placebo and 95% CI / DASS Stress Difference with Placebo and 95% CI / DASS Anxiety LSMean and 95% CI / DASS Depression LSMean and 95% CI / DASS Stress LSMean and 95% CI: Day 8; for DASS Anxiety LSMean and 95% CI / DASS Depression LSMean and 95% CI / DASS Stress LSMean and 95% CI: change from baseline
Text: The Depression Anxiety Stress Scale (DASS) is a 42-item self-report instrument for measuring depression, anxiety and tension/stress.

[16] = Phase 1 clinical study: safety and tolerability; conditions: healthy volunteers, single oral dose 75-225 mg
[17] = any cohort compared with the placebo group
[18] = 75-225 mg, statistical significance at higher doses

CNC(C)Cc1ccc2c(c1)OCO2 (racemic) [racemic MDMA, 3,4-methylenedioxymethamphetamine]
VAS Happy, Open, Loving, Close to Others, and Sociable [1]: acute and substantial increases | oxytocin release [2]: 5-6 x | 11D-ASC response profile [3]: no visual hallucinations and little to no insightfulness

CN[C@H](C)Cc1ccc2c(c1)OCO2 [R(−)-MDMA]
systemic exposure (Cmax/AUC) to the active metabolite R(−)-MDA ([4]; after R(−)-MDMA dosing, at higher doses): increased with doses in a slightly less than dose-dependent manner | PK food effects ([4]; fasted cohorts versus one fed arm): No patterns in the data suggested any substantial PK food effects | AUC0-24h compared to prior reports for total MDMA following racemic-MDMA dosing ([4]; plasma): substantially higher | Systemic exposure (Cmax and AUC) ([4]; plasma, 75-225 mg oral): increase with increasing doses in a generally dose-dependent manner | pharmacokinetics, dose dependence ([4]; plasma, 75-225 mg oral): dose-dependent pharmacokinetics | SIRS dose response ([5]; 75-225 mg oral): very strong dose response | time of peak SIRS relative to plasma PK Tmax ([5]; each dose): much earlier than the plasma PK Tmax at each dose | VAS scores for Close to Others and Sociable ([6]; all cohorts): showed no changes from baseline compared to placebo in all cohorts | VAS scores for Happy, Open, Loving, and Lonely ([6]; compared to placebo control): showed changes from baseline (prior to treatment) in a dose-dependent manner | FERT mean happiness reaction time [7]: reduction in the mean happiness reaction time | FERT median reaction time [7]: greater reduction in the median reaction time | MET scores: CE positive, EEE all and EEE negative emotions ([8]; all cohorts): showed no changes from baseline compared to placebo in all cohorts | MET LSmean scores: CE all, CE negative, EEE positive, IEE all, IEE positive, IEE negative emotions ([8]; near 3.5 hours): showed changes from baseline in a dose-dependent manner | concentration of mature brain-derived neurotrophic factor [9, 17]: no obvious change from baseline | concentration of oxytocin [9, 17]: no obvious change from baseline | concentration of prolactin ([9]; compared with the placebo group): consistent increase | ratio of Oceanic Boundlessness (OB) to Dread of Ego Dissolution (DED) ([10]; 175 mg cohort): very favorable ratio | 5D-ASC subcomponents and total score [10, 18]: dose-dependent increase in all measured subcomponents | 11D-ASC response profile ([11]; 175 mg and 225 mg, compared with psilocybin): many similarities to that of psilocybin, with slightly less imagery and slightly more insightfulness | 11D-ASC subcomponents and total score [11, 18]: dose-dependent increase in all measured subcomponents | EBI observations [12]: clear dose-dependent response with statistical significance at higher doses | Self-Connectedness Scale Difference with Placebo and 95% CI ([13]; Day 2, 75 mg oral): 0.14 | Self-Connectedness Scale Difference with Placebo and 95% CI ([13]; Day 2, 125 mg oral): 0.33 | Self-Connectedness Scale Difference with Placebo and 95% CI ([13]; Day 2, 175 mg oral): 0.42 | Self-Connectedness Scale Difference with Placebo and 95% CI ([13]; Day 2, 225 mg oral): 0.26 | SCS changes from baseline ([13]; Day 2 and Day 8): clear dose-dependent response with statistical significance at Day 8 | Self-Connectedness Scale Difference with Placebo and 95% CI ([13]; Day 8, 75 mg oral): 0.37 | Self-Connectedness Scale Difference with Placebo and 95% CI ([13]; Day 8, 125 mg oral): 0.40 | Self-Connectedness Scale Difference with Placebo and 95% CI ([13]; Day 8, 175 mg oral): 0.41 | Self-Connectedness Scale Difference with Placebo and 95% CI ([13]; Day 8, 225 mg oral): 0.52 | Self-Connectedness Scale LSMean and 95% CI ([13]; Day 2, 75 mg oral): 0.04 | Self-Connectedness Scale LSMean and 95% CI ([13]; Day 2, 125 mg oral): 0.23 | Self-Connectedness Scale LSMean and 95% CI ([13]; Day 2, 175 mg oral): 0.32 | Self-Connectedness Scale LSMean and 95% CI ([13]; Day 2, 225 mg oral): 0.16 | Self-Connectedness Scale LSMean and 95% CI ([13]; Day 8, 75 mg oral): 0.08 | Self-Connectedness Scale LSMean and 95% CI ([13]; Day 8, 125 mg oral): 0.12 | Self-Connectedness Scale LSMean and 95% CI ([13]; Day 8, 175 mg oral): 0.12 | Self-Connectedness Scale LSMean and 95% CI ([13]; Day 8, 225 mg oral): 0.24 | CEQ changes from baseline [14]: clear dose-dependent response with statistical significance at higher doses | DASS anxiety ([15]; Day 8, compared to placebo): lowered anxiety at lower doses but increased anxiety at 225 mg compared to placebo | DASS Anxiety Difference with Placebo and 95% CI ([15]; 75 mg oral): −1.04 | DASS Depression Difference with Placebo and 95% CI ([15]; 75 mg oral): −0.15 | DASS Stress Difference with Placebo and 95% CI ([15]; 75 mg oral): −0.93 | DASS Anxiety Difference with Placebo and 95% CI ([15]; 125 mg oral): −1.07 | DASS Depression Difference with Placebo and 95% CI ([15]; 125 mg oral): −0.26 | DASS Stress Difference with Placebo and 95% CI ([15]; 125 mg oral): −0.91 | DASS Anxiety Difference with Placebo and 95% CI ([15]; 175 mg oral): −1.08 | DASS Depression Difference with Placebo and 95% CI ([15]; 175 mg oral): −0.03 | DASS Stress Difference with Placebo and 95% CI ([15]; 175 mg oral): 1.11 | DASS Anxiety Difference with Placebo and 95% CI ([15]; 225 mg oral): 0.94 | DASS Depression Difference with Placebo and 95% CI ([15]; 225 mg oral): 1.29 | DASS Stress Difference with Placebo and 95% CI ([15]; 225 mg oral): 1.68 | DASS Anxiety LSMean and 95% CI ([15]; 75 mg oral): −1.22 | DASS Depression LSMean and 95% CI ([15]; 75 mg oral): −1.03 | DASS Stress LSMean and 95% CI ([15]; 75 mg oral): −2.57 | DASS Anxiety LSMean and 95% CI ([15]; 125 mg oral): −1.24 | DASS Depression LSMean and 95% CI ([15]; 125 mg oral): −1.14 | DASS Stress LSMean and 95% CI ([15]; 125 mg oral): −2.54 | DASS Anxiety LSMean and 95% CI ([15]; 175 mg oral): −1.26 | DASS Depression LSMean and 95% CI ([15]; 175 mg oral): −0.91 | DASS Stress LSMean and 95% CI ([15]; 175 mg oral): −0.52 | DASS Anxiety LSMean and 95% CI ([15]; 225 mg oral): 0.76 | DASS Depression LSMean and 95% CI ([15]; 225 mg oral): 0.41 | DASS Stress LSMean and 95% CI ([15]; 225 mg oral): 0.05 | Peak body temperatures [16]: fell within the normal range | Treatment-related adverse events: headache [16]: 16.7% | Treatment-related adverse events: nausea [16]: 29.2% | serious or severe AEs [16]: no serious or severe AEs | study discontinuations [16]: no study discontinuations | tolerability [16]: well-tolerated | blood pressure and heart rate ([16]; limited dose dependency): Non-clinically significant increases
